Results from patent US20250282746A1, “HALOGEN-SUBSTITUTED ISOINDOLINE COMPOUND AND USE THEREOF” (CHENGDU FENDI PHARMACEUTICAL CO., LTD., priority 2022, published 2025).
Like-named read-outs stand apart in the source and are kept apart here.

Tests used:
[1] = molecular target: T1, GSPT1 protein (Homo sapiens, UniProt P15170); assay: Degradation of GSPT1 protein in NB-4 cells (Western blot); format: cell-based; settings: for inhibition at 1 µM: read-out: GSPT1 degradation
T1 construct: The whole cell lysate was prepared using a RIPA lysis buffer; endogenous in cells; host or cells: NB-4 cells
T1 sequence (P15170 whole entry): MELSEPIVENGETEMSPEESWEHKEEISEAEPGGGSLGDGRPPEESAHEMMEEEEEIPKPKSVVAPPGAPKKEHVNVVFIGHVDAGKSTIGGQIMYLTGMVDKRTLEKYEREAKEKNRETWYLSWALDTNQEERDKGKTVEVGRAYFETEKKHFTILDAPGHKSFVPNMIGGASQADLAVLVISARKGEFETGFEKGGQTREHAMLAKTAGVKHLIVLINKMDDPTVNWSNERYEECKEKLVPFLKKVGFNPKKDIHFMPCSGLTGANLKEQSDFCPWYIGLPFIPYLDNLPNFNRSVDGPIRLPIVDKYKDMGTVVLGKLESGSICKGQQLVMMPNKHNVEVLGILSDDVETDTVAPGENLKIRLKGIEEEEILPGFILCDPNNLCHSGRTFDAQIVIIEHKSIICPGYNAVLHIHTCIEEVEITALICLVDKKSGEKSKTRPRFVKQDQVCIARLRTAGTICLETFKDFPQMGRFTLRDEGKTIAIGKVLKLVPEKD
Procedure: 150 μL of DMSO and the compounds (1 μM) were added, and the mixture was incubated in an incubator at 5% CO2 and 37° C. for 6 h. The cells were centrifuged, and the culture medium was discarded. PBS was added for washing and then discarded. The whole cell lysate was prepared using a RIPA lysis buffer containing a protease inhibitor cocktail and a phosphatase inhibitor, and incubated on ice for 30 min. The mixture was centrifuged, and the cell debris was discarded. The whole cell lysate supernatant was collected and transferred to a fresh EP tube. Samples were prepared using a loading buffer after a BCA protein assay. The samples were incubated in a metal bath at 100° C. for 10 min.
The samples were electrophoretically separated from proteins on a 4-20% precast gel (SDS-PAGE gel), transferred to a PVDF membrane, blocked with 5% NFDM/TBST for 1 h at room temperature, co-incubated overnight at 4° C. with the primary antibody, and co-incubated for 2 h at room temperature with the secondary antibody on the next day. The signals were detected on the […]™ imaging system.

[2] = system: MV-4-11 cells; assay: Antiproliferative activity against MV-4-11 cells (CellTiter-Glo, 72 h); format: cell-based; settings: Homo sapiens, read-out: Antiproliferative activity IC50
Procedure: MV411 cells in the logarithmic growth phase were diluted in a medium (RPMI+10% FBS) and plated at 5,000 cells/well in 96-well whole black plates (WHB) with 50 μL/well. After plating, the plates were incubated in an incubator at 5% CO2 and 37° C. for 24 h before the compounds were added. The compounds were prepared into a 10 mM stock solution in DMSO and diluted in a culture medium to the desired concentrations (a final DMSO concentration of 0.2%). […] The plates were incubated at 5% CO2 and 37° C. for 72 h. After the incubation was complete, the plates were equilibrated at room temperature for 30 min. CellTiter-Glo® Reagent (Promega G7573) was added at 100 μL/well. The plates were shaken for 12 min on a microplate shaker. The luminescence value was measured at room temperature by the GloMax navigator (Promega GM2010).

| SMILES | inhibition at 1 µM ([1]; NB-4 cells, compound 1 μM, 6 h) | IC50 ([2]; MV4-11, MV-4-11 cells, 72 h) | also measured |
| --- | --- | --- | --- |
| O=C1CCC(N2Cc3c(ccc(CNC(=O)c4ccc(C5CC5)cc4)c3F)C2=O)C(=O)N1 (stereo not drawn) [FDAB-97] | > 80% | 1 to 10 nM | – |
| O=C1CCC(N2Cc3c(ccc(CNC(=O)c4ccc5cc6ccccc6cc5c4)c3F)C2=O)C(=O)N1 (stereo not drawn) [FDAB-87] | < 25% | < 1 nM | – |
| CN(C)c1ccc(C(=O)NCc2ccc3c(c2F)CN(C2CCC(=O)NC2=O)C3=O)cc1 (stereo not drawn) [FDAB-86] | > 80% | 1 to 10 nM | – |
| NCc1ccc2c(c1Cl)CN(C1CCC(=O)NC1=O)C2=O (stereo not drawn) [FDAB-12] | < 25% | > 1000 nM | – |
| CC(CCC(=O)NCc1ccc2c(c1F)CN(C1CCC(=O)NC1=O)C2=O)(c1ccc(O)cc1)c1ccc(O)cc1 (stereo not drawn) [FDAB-180] | – | 10 to 100 nM | – |
| O=C1CCC(N2Cc3c(ccc(CNC(=O)c4ccc(Cl)cc4)c3Cl)C2=O)C(=O)N1 (stereo not drawn) [FDAB-70] | 25 to 50% | 100 to 1000 nM | – |
| O=C1CCC(N2Cc3c(ccc(CNC(=O)C4(c5ccc(Br)cc5F)CC4)c3F)C2=O)C(=O)N1 (stereo not drawn) [FDAB-141] | < 25% | > 1000 nM | – |
| O=C1CCC(N2Cc3cc(CNC(=O)c4cc5ccccc5o4)c(Cl)cc3C2=O)C(=O)N1 (stereo not drawn) [FDAB-71] | < 25% | > 1000 nM | – |
| CCN1C(=O)CCC(N2Cc3c(ccc(CNC(=O)c4ccc(Cl)cc4)c3F)C2=O)C1=O (stereo not drawn) [FDAB-125] | < 25% | > 1000 nM | – |
| O=C1CCC(N2Cc3cc(CNC(=O)c4cc5ccccc5o4)cc(F)c3C2=O)C(=O)N1 (stereo not drawn) [FDAB-21] | < 25% | > 1000 nM | – |
| COc1cc(C)c(/C=C/C(C)=C/C=C/C(C)=C/C(=O)NCc2ccc3c(c2F)CN(C2CCC(=O)NC2=O)C3=O)c(C)c1C (stereo not drawn) [FDAB-162] | > 80% | < 1 nM | – |
| Cn1ccc2ccc(C(=O)NCc3cc4c(cc3F)C(=O)N(C3CCC(=O)NC3=O)C4)cc21 (stereo not drawn) [FDAB-59] | > 80% | > 1000 nM | – |
| NCCc1ccc(NC(=O)NCc2ccc3c(c2F)CN(C2CCC(=O)NC2=O)C3=O)cc1Cl (stereo not drawn) [FDAB-182] | – | 1 to 10 nM | – |
| O=C1CCC(N2Cc3cc(CNC(=O)c4cc5cc(F)ccc5o4)c(F)cc3C2=O)C(=O)N1 (stereo not drawn) [FDAB-35] | 50 to 80% | 10 to 100 nM | – |
| CC(C)(CN)c1ccc(C(=O)NCc2ccc3c(c2F)CN(C2CCC(=O)NC2=O)C3=O)cc1 (stereo not drawn) [FDAB-174] | – | 10 to 100 nM | – |
| O=C1CCC(N2Cc3c(ccc(CNC(=O)c4cc5ccccc5o4)c3Cl)C2=O)C(=O)N1 (stereo not drawn) [FDAB-67] | > 80% | 1 to 10 nM | – |
| O=C1CCC(N2Cc3cc(CNC(=O)c4cc5cc(Cl)ccc5o4)cc(F)c3C2=O)C(=O)N1 (stereo not drawn) [FDAB-22] | < 25% | > 1000 nM | – |
| NCc1cc2c(cc1F)C(=O)N(C1CCC(=O)NC1=O)C2 (stereo not drawn) [FDAB-6] | 50 to 80% | 10 to 100 nM | – |
| N#Cc1cc(F)c2c(c1)CN(C1CCC(=O)NC1=O)C2=O (stereo not drawn) [FDAB-7] | < 25% | > 1000 nM | – |

| SMILES | inhibition at 1 µM ([1]; NB-4 cells, compound 1 μM, 6 h) | IC50 ([2]; MV4-11, MV-4-11 cells, 72 h) | also measured |
| --- | --- | --- | --- |
| CCCCCCCCCCCCSC(=S)SC(C)(C)C(=O)NCc1ccc2c(c1F)CN(C1CCC(=O)NC1=O)C2=O (stereo not drawn) [FDAB-163] | < 25% | > 1000 nM | – |
| Nc1ccc(-c2ccc(C(=O)NCc3ccc4c(c3F)CN(C3CCC(=O)NC3=O)C4=O)cc2)cc1 (stereo not drawn) [FDAB-177] | – | < 1 nM | – |
| N[C@@H](CC(=O)NCc1ccc2c(c1F)CN(C1CCC(=O)NC1=O)C2=O)C(c1ccccc1)c1ccccc1 (stereo partly drawn) [FDAB-181] | – | 1 to 10 nM | – |
| O=C1CCC(N2Cc3cc(CNC(=O)c4cc5cc(Cl)ccc5o4)c(Cl)cc3C2=O)C(=O)N1 (stereo not drawn) [FDAB-72] | < 25% | > 1000 nM | – |
| O=C1CCC(N2Cc3cc(CNC(=O)c4ccc(Cl)cc4)c(Cl)cc3C2=O)C(=O)N1 (stereo not drawn) [FDAB-74] | < 25% | > 1000 nM | – |
| O=C1CCC(N2Cc3c(ccc(CNC(=O)c4ccc(-c5ccccc5)cc4)c3F)C2=O)C(=O)N1 (stereo not drawn) [FDAB-84] | > 80% | < 1 nM | – |
| O=C1CCC(N2Cc3cc(CNC(=O)c4ccc5ccccc5n4)c(F)cc3C2=O)C(=O)N1 (stereo not drawn) [FDAB-60] | > 80% | 10 to 100 nM | – |
| O=C1CCC(N2Cc3c(ccc(CNC(=O)c4ccc(Cl)c(F)c4)c3F)C2=O)C(=O)N1 (stereo not drawn) [FDAB-116] | > 80% | 1 to 10 nM | – |
| NCc1ccc(-c2ccc(C(=O)NCc3ccc4c(c3F)CN(C3CCC(=O)NC3=O)C4=O)cc2)cc1 (stereo not drawn) [FDAB-175] | – | < 1 nM | – |
| O=C1CCC(N2Cc3c(ccc(CNC(=O)c4ccc(Cl)cc4Cl)c3F)C2=O)C(=O)N1 (stereo not drawn) [FDAB-50] | > 80% | 1 to 10 nM | – |
| Cc1cccc(C(=O)NCc2ccc3c(c2F)CN(C2CCC(=O)NC2=O)C3=O)c1 (stereo not drawn) [FDAB-89] | < 25% | > 1000 nM | – |
| O=C(C#Cc1cccc(O)c1)NCc1ccc2c(c1F)CN(C1CCC(=O)NC1=O)C2=O (stereo not drawn) [FDAB-146] | > 80% | < 1 nM | – |
| O=C1CCC(N2Cc3cc(CNC(=O)c4cc5ccccc5[nH]4)c(F)cc3C2=O)C(=O)N1 (stereo not drawn) [FDAB-24] | > 80% | 1 to 10 nM | – |
| O=C1CCC(N2Cc3c(ccc(CNC(=O)c4ccc(Cl)cn4)c3F)C2=O)C(=O)N1 (stereo not drawn) [FDAB-62] | < 25% | > 1000 nM | – |
| N#Cc1cc(C(=O)NCc2ccc3c(c2Cl)CN(C2CCC(=O)NC2=O)C3=O)ccc1Cl (stereo not drawn) [FDAB-78] | < 25% | > 1000 nM | – |
| Nc1cc(C(=O)NCc2ccc3c(c2F)CN(C2CCC(=O)NC2=O)C3=O)ccc1Cl (stereo not drawn) [FDAB-113] | > 80% | 10 to 100 nM | – |
| O=C1CCC(N2Cc3c(ccc(CNC(=O)c4ccc(F)cc4)c3F)C2=O)C(=O)N1 (stereo not drawn) [FDAB-49] | < 25% | > 1000 nM | – |
| O=C1CCC(N2Cc3cc(CNC(=O)c4ccc(O)cc4)c(F)cc3C2=O)C(=O)N1 (stereo not drawn) [FDAB-28] | < 25% | > 1000 nM | – |
| CC(C)(C)OC(=O)NCc1cc(F)c2c(c1)CN(C1CCC(=O)NC1=O)C2=O (stereo not drawn) [FDAB-8] | < 25% | > 1000 nM | – |

| SMILES | inhibition at 1 µM ([1]; NB-4 cells, compound 1 μM, 6 h) | IC50 ([2]; MV4-11, MV-4-11 cells, 72 h) | also measured |
| --- | --- | --- | --- |
| O=C1CCC(N2Cc3cc(CNC(=O)c4cccnc4)c(F)cc3C2=O)C(=O)N1 (stereo not drawn) [FDAB-30] | < 25% | > 1000 nM | – |
| O=C(C#Cc1ccc(-c2ccc(O)cc2)cc1)NCc1ccc2c(c1F)CN(C1CCC(=O)NC1=O)C2=O (stereo not drawn) [FDAB-186] | – | < 1 nM | – |
| O=C1CCC(N2Cc3cc(CNC(=O)Nc4ccc(CCO)c(Cl)c4)ccc3C2=O)C(=O)N1 (stereo not drawn) [FDAB-185] | – | 1 to 10 nM | – |
| O=C1CCC(N2Cc3cc(CNC(=O)c4ccc(C(F)(F)F)cc4)c(F)cc3C2=O)C(=O)N1 (stereo not drawn) [FDAB-52] | > 80% | 1 to 10 nM | – |
| O=C1CCC(N2Cc3c(ccc(CNC(=O)c4cc5cc(Cl)ccc5o4)c3F)C2=O)C(=O)N1 (stereo not drawn) [FDAB-47] | > 80% | 1 to 10 nM | – |
| O=C1CCC(N2Cc3c(ccc(CNC(=O)c4cc5ccccc5[nH]4)c3Cl)C2=O)C(=O)N1 (stereo not drawn) [FDAB-75] | 50 to 80% | 1 to 10 nM | – |
| CC(C)c1ccc(C(=O)NCc2ccc3c(c2F)CN(C2CCC(=O)NC2=O)C3=O)cc1 (stereo not drawn) [FDAB-93] | > 80% | < 1 nM | – |
| O=C(Cc1ccc(Cl)cc1Cl)NCc1ccc2c(c1F)CN(C1CCC(=O)NC1=O)C2=O (stereo not drawn) [FDAB-131] | > 80% | < 1 nM | – |
| [2H]c1c([2H])c(C(=O)NCc2ccc3c(c2F)CN(C2CCC(=O)NC2=O)C3=O)c([2H])c([2H])c1Cl (stereo not drawn) [FDAB-18] | – | – | inhibition at 1 µM ([1]; NB-4, 6 h): > 80%; IC50 ([2]; MV4-11, 72 h): 10 to 100 nM |
| COc1cc(C(=O)NCc2ccc3c(c2F)CN(C2CCC(=O)NC2=O)C3=O)c(N)cc1OCc1ccccc1 (stereo not drawn) [FDAB-178] | – | < 1 nM | – |
| O=C1CCC(N2Cc3c(ccc(CNC(=O)Nc4ccc(CCO)c(Cl)c4)c3F)C2=O)C(=O)N1 (stereo not drawn) [FDAB-183] | – | < 1 nM | – |
| O=C1CCC(N2Cc3cc(CNC(=O)c4ccc(Cl)cn4)c(F)cc3C2=O)C(=O)N1 (stereo not drawn) [FDAB-57] | – | – | GSPT1 degradation ([1]; NB-4 cells, compound 1 μM, 6 h): D (D denotes a percentage of degradation less than 25%) |
| CC(C)(C)c1ccc(C(=O)NCc2ccc3c(c2F)CN(C2CCC(=O)NC2=O)C3=O)c(N)c1 (stereo not drawn) [FDAB-172] | – | < 1 nM | – |
| Nc1cc(-c2ccccc2)ccc1C(=O)NCc1ccc2c(c1F)CN(C1CCC(=O)NC1=O)C2=O (stereo not drawn) [FDAB-176] | – | 1 to 10 nM | – |
| NCCc1ccc(-c2ccc(C#CC(=O)NCc3ccc4c(c3F)CN(C3CCC(=O)NC3=O)C4=O)cc2)cc1 (stereo not drawn) [FDAB-188] | – | 1 to 10 nM | – |
| O=C(C#Cc1ccc(-c2ccc(CCO)cc2)cc1)NCc1ccc2c(c1F)CN(C1CCC(=O)NC1=O)C2=O (stereo not drawn) [FDAB-187] | – | < 1 nM | – |
| O=C1CCC(N2Cc3c(ccc(CNC(=O)c4ccc(OCc5ccccc5)c(O)c4)c3F)C2=O)C(=O)N1 (stereo not drawn) [FDAB-179] | – | < 1 nM | – |
| CC(C)(C)c1ccc(C(=O)NCc2ccc3c(c2F)CN(C2CCC(=O)NC2=O)C3=O)cc1O (stereo not drawn) [FDAB-173] | – | < 1 nM | – |
| Nc1ccc(-c2ccc(C#CC(=O)NCc3ccc4c(c3F)CN(C3CCC(=O)NC3=O)C4=O)cc2)cc1 (stereo not drawn) [FDAB-184] | – | < 1 nM | – |
